Measured values from PubChem BioAssay (NCI).
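All cell lines were grown in 96-well plates and treated with compound for 48 hours. GI50 is the concentration that inhibits growth by half. TGI is the concentration that stops growth completely.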

Assays:
Assay in all cases: inhibition of tumour cell growth, NCI panel, 48 h
A549 NSCLC = test system: A549 NSCLC
CCRF-CEM leukemia = test system: CCRF-CEM leukemia
COLO 205 colon = test system: COLO 205 colon
NCI/ADR-RES ovarian = test system: NCI/ADR-RES ovarian
SF-295 CNS = test system: SF-295 CNS
SN12C renal = test system: SN12C renal
SNB-75 CNS = test system: SNB-75 CNS
SW-620 colon = test system: SW-620 colon
UO-31 renal = test system: UO-31 renal
SR leukemia = test system: SR leukemia

SMILES	TGI (A549 NSCLC) [µM]	TGI (CCRF-CEM leukemia) [µM]	TGI (COLO 205 colon) [µM]	TGI (NCI/ADR-RES ovarian) [µM]	TGI (SF-295 CNS) [µM]	TGI (SN12C renal) [µM]	TGI (SNB-75 CNS) [µM]	TGI (SW-620 colon) [µM]	TGI (UO-31 renal) [µM]	TGI (SR leukemia) [µM]	GI50 (CCRF-CEM leukemia) [µM]	GI50 (NCI/ADR-RES ovarian) [µM]	GI50 (SF-295 CNS) [µM]	GI50 (SN12C renal) [µM]	GI50 (SNB-75 CNS) [µM]	GI50 (SR leukemia) [µM]	GI50 (SW-620 colon) [µM]	GI50 (UO-31 renal) [µM]
CCOC(=O)c1c(CN2CCNCC2)nc2ccccc2c1-c1ccccc1	33.1	38.2	35.8	34.4	29	28.2	20.5	34.9	21.7	–	–	–	–	–	–	–	–	–
C/C=C\C(CC(=O)NCCc1cn(C(=O)OCc2ccccc2)c2ccccc12)CC(=O)OC (stereo unspecified)	> 100	–	> 100	> 100	> 100	–	> 100	> 100	> 100	–	–	–	–	–	–	–	–	–
COC(=O)[C@H]1[C@@H](C(C)C)O[C@@H](C(C)C)O[C@H]1C(F)(F)F	> 100	> 100	> 100	> 100	> 100	> 100	> 100	> 100	> 100	> 100	–	–	–	–	–	–	–	–
Cc1cc(O)c(C(C)C)cc1SC#N	–	24.6	40.5	47.7	31.2	–	22.5	44.5	–	–	–	–	–	–	–	–	–	–
COc1nc(N(C)C)nc2c1n(C)c[n+]2C	> 100	> 100	> 100	> 100	> 100	> 100	> 100	> 100	> 100	–	–	–	–	–	–	–	–	–
N/N=C1/C2CN3CCN(C2)CC1(c1ccc([N+](=O)[O-])cc1)C3	–	–	> 100	> 100	> 100	> 100	> 100	> 100	> 100	> 100	–	–	–	–	–	–	–	–
O=[N+]([O-])c1ccc2nc(-c3ccccn3)c(-c3ccccn3)nc2c1	> 100	> 100	> 100	> 100	> 100	> 100	> 100	> 100	> 100	> 100	–	–	–	–	–	–	–	–
c1ccc(CCN2CCc3[nH]c4ccccc4c3C2)cc1	62.3	> 100	> 10	36.9	35.2	62.2	68	29.6	32	75.7	–	–	–	–	–	–	–	–
COc1cc2nc(-c3ccc4ccccc4c3)[nH]c(=O)c2cc1OC	> 100	> 100	> 100	> 100	> 100	> 100	58.3	–	> 100	> 100	–	–	–	–	–	–	–	–
NC(=S)N/N=C\c1ccc(OCc2cccc(COc3ccc(/C=N/NC(N)=S)cc3)n2)cc1	> 100	> 100	> 100	> 100	> 100	> 100	> 100	> 100	> 100	> 100	–	–	–	–	–	–	–	–
O=C(CCN1CCCC1)Nc1ccc2sc3ccccc3c(=O)c2n1	17.9	25.8	16.3	21.4	27.8	21.3	18.2	19.9	16.3	23.7	–	–	–	–	–	–	–	–
CC1OC2=N[C@@H]1C(=O)N[C@@H](C(C)C)C1=N[C@H](C(=O)N[C@@H](C(C)C)C3=N[C@H](C(=O)N[C@@H](C(C)C)C4=N[C@H](C(=O)N[C@H]2C(C)C)C(C)O4)C(C)O3)C(C)O1 (stereo partly specified)	–	> 10	> 10	> 10	> 10	> 10	> 10	> 10	> 10	> 10	–	–	–	–	–	–	–	–
Cn1nc2n(c1=O)CCCN2	> 100	> 100	> 100	> 100	> 100	> 100	> 100	> 100	–	> 100	–	–	–	–	–	–	–	–
C/C(=C\c1ccccn1)c1ccccn1	> 100	–	> 100	> 100	> 100	–	> 100	–	> 100	–	–	–	–	–	–	–	–	–
O=[N+]([O-])c1ccc(S[C@@H]2[C@H]3c4c(-c5ccccc5)[nH]c(-c5ccccc5)c4[C@@H]2C[C@H]3Cl)cc1	> 100	–	> 100	26.4	> 100	22.2	8.29	> 100	28.4	> 100	–	–	–	–	–	–	–	–
CN(C)/N=C/c1cn(C)c(=O)n(C)c1=O	> 100	> 100	> 100	> 100	> 100	> 100	> 100	> 100	> 100	–	–	–	–	–	–	–	–	–
Clc1ccc(N2N=C(c3cccc(Nc4ccncc4)c3)CC2c2ccc3c(c2)OCO3)cc1 (stereo unspecified)	–	15.9	–	3.17	3.29	3.25	5.68	3.15	2.86	4.76	3.18	1.64	1.79	1.71	1.58	2	1.63	1.36
COc1ccc2c(c1)C(N)=C(c1ccccc1)C2=O	> 100	> 100	> 100	> 100	> 100	> 100	70	> 100	–	> 100	–	–	–	–	–	–	–	–
O=C(NCc1cccc(C(F)(F)F)c1)c1cc2sccc2nc1C(F)(F)F	> 100	> 100	> 100	> 100	> 100	> 100	–	> 100	> 100	> 100	–	–	–	–	–	–	–	–
C/C(=N\NC(=S)N1CCCCC1)c1cccc(C)n1	10.6	–	13.7	0.258	> 33.4	12.1	6.19	18.3	1.53	> 100	–	–	–	–	–	–	–	–
COc1nc2c(c(=O)n1C)N[C@H]1[C@H](OC(C)=O)[C@@H](OC(C)=O)CO[C@H]1N2	> 100	–	> 100	> 100	> 100	> 100	> 100	> 100	> 100	> 100	–	–	–	–	–	–	–	–
N#CC(C#N)=C1C(C#N)=C(N)NC12OCCO2	> 100	> 100	> 100	> 100	> 100	> 100	–	> 100	> 100	> 100	–	–	–	–	–	–	–	–
